# Laboratory results published in patent US12083094B2, “Cannabinoid composition and methods of treatment using the same” (CANNPAL ANIMAL THERAPEUTICS LIMITED, priority 2018, dated 2024).
# Assay: Blood sampling for THC and CBD plasma concentration after single oral dosing
# Conditions: for concentration at 0 h / concentration at 1 h / concentration at 1.5 h / concentration at 2 h / concentration at 3 h / concentration at 4 h / concentration at 12 h / concentration at 16 h / concentration at 24 h / concentration at 72 h / concentration at 0.67 h / concentration at 6 h / concentration at 8 h / concentration at 32 h / concentration at 48 h: oral, THC level in blood plasma fraction; for AUC: AUC for THC concentration, canine
# Protocol: Two compositions, IVP1 and IVP2, were administered in varying amounts in the study.
# Dosage volumes were calculated prior to Day 0, to provide the target dosage in mg/kg bodyweight based on actual dog bodyweights and IVP active ingredient composition based on the Certificates of Analysis.
# Blood samples of approximately 5 mL were collected at each drug concentration sampling time-point from each animal using 22-gauge needles and 5 mL syringes.
# The data points from Table 4 and Table 5 were also plotted and these graphs are set out in FIGS. 1-16.
# [1] = dog, plasma, individual dogs 1-4, 0.24 mg/kg THC + 0.12 mg/kg CBD oral once
# [2] = dog, plasma, individual dogs 5-8, 0.12 mg/kg THC + 0.24 mg/kg CBD oral once
# [3] = dog, plasma, mean of dogs 1-4, 0.24 mg/kg THC + 0.12 mg/kg CBD oral once
# [4] = dog, plasma, mean of dogs 5-8, 0.12 mg/kg THC + 0.24 mg/kg CBD oral once
smiles,measurement,setting,value
"CCCCCc1cc(O)c2c(c1)OC(C)(C)[C@@H]1CCC(C)=C[C@@H]21 [THC, Δ^9-Tetrahydrocannabinol]",THC in the subject's blood,72 h after administration,detectable
same,concentration at 0 h,[1],0 ng/mL
same,concentration at 1 h,[1],45.2 ng/mL
same,concentration at 1.5 h,[1],30.1 ng/mL
same,concentration at 2 h,[1],25.6 ng/mL
same,concentration at 0 h,[2],0 ng/mL
same,concentration at 2 h,[2],22.3 ng/mL
same,concentration at 3 h,[2],8.19 ng/mL
same,concentration at 4 h,[2],4.19 ng/mL
same,concentration at 12 h,[2],0.56 ng/mL
same,concentration at 16 h,[2],0.34 ng/mL
same,concentration at 24 h,[2],0.23 ng/mL
same,concentration at 72 h,[2],0 ng/mL
same,concentration at 0 h,[3],0 ng/mL
same,concentration at 0.67 h,[3],39 ng/mL
same,concentration at 1 h,[3],40.7 ng/mL
same,concentration at 1.5 h,[3],32.6 ng/mL
same,concentration at 2 h,[3],26.1 ng/mL
same,concentration at 3 h,[3],15.8 ng/mL
same,concentration at 4 h,[3],10.1 ng/mL
same,concentration at 6 h,[3],6.33 ng/mL
same,concentration at 8 h,[3],3.98 ng/mL
same,concentration at 12 h,[3],1.36 ng/mL
same,concentration at 16 h,[3],0.75 ng/mL
same,concentration at 24 h,[3],0.41 ng/mL
same,concentration at 32 h,[3],0.43 ng/mL
same,concentration at 48 h,[3],0.24 ng/mL
same,concentration at 72 h,[3],0.16 ng/mL
same,concentration at 0 h,[4],0 ng/mL
same,concentration at 0.67 h,[4],27.9 ng/mL
same,concentration at 1 h,[4],36.8 ng/mL
same,concentration at 1.5 h,[4],27.7 ng/mL
same,concentration at 2 h,[4],18 ng/mL
same,concentration at 3 h,[4],7.84 ng/mL
same,concentration at 4 h,[4],4.29 ng/mL
same,concentration at 6 h,[4],3 ng/mL
same,concentration at 8 h,[4],2.38 ng/mL
same,concentration at 12 h,[4],0.65 ng/mL
same,concentration at 16 h,[4],0.44 ng/mL
same,concentration at 24 h,[4],0.28 ng/mL
same,concentration at 32 h,[4],0.28 ng/mL
same,concentration at 48 h,[4],0.09 ng/mL
same,concentration at 72 h,[4],0 ng/mL
same,AUC(0-inf),"dog, plasma, po",0.6 ng·h/mL
same,Cmax,"dog, plasma, po",19 to 71.3 ng/mL
same,half-life,"dog, plasma, po",1100 min
same,AUC,"dog, plasma, po, 0.12 mg/kg, 0.12 mg/kg THC in combination with 0.24 mg/kg CBD",90 to 110 ng·h/mL
same,AUC,"dog, plasma, po, 0.24 mg/kg, 0.24 mg/kg THC in combination with 0.12 mg/kg CBD",145 to 170 ng·h/mL
